Source: publication PMC7904875, “Identification and Functional Analysis of SlitOBP11 From Spodoptera litura” (Frontiers in Physiology, 2021)

target: T1, SlitOBP11 (Spodoptera litura, UniProt A0A9J7E9A4); experiment: fluorescence titration, Scatchard; type: binding; details: read-out: dissociation constant
T1 construct: gene LOC111356549; mature protein, predicted 23-residue signal peptide removed; ORF 465 bp, given as 155 aa; pET32a(+) (BamHI/HindIII), E. coli BL21(DE3); Ni-NTA purified, tag cleaved with enterokinase
T1 sequence (A0A9J7E9A4 24-154): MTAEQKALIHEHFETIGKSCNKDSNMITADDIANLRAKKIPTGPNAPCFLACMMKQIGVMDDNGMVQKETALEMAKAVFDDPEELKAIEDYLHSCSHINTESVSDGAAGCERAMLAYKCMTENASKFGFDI

Molecule | Kd
c1ccc(Nc2cccc3ccccc23)cc1 [1-NPN, 1-N-Phenyl-naphthylamine] | 8.09 ± 0.26 µM

target: T1, SlitOBP11; experiment: competitive displacement of 1-NPN fluorescence; type: binding; details: not given
From the text: competitive displacement of 1-NPN fluorescence on SlitOBP11

Molecule | IC50
O=CCc1ccccc1 [Phenylacetaldehyde] | 43.4 ± 10.1 µM

same assay, conditions: read-out: Ki (μmol L^-1)^∗

Molecule | Ki
CC/C=C/CCCCCCCCCCOC(C)=O [(E)-11-tetradecenly acetate, (E)-11-Tetradecenyl acetate] | 13.5 ± 0.479 µM
CCCC/C=C\CCCCCCCCOC(C)=O [(Z)-9-tetradecenyl acetate, (Z)-9-Tetradecenyl acetate] | 9.97 ± 0.492 µM
C/C=C/C/C=C\CCCCCCCCOC(C)=O [(Z, E)-9,12-tetradecadienyl acetate, (Z,E)-9,12-Tetradecadienyl acetate] | 14.4 ± 0.317 µM
CC(=O)OCCc1ccccc1 [Phenethyl acetate] | 43.1 ± 0.488 µM
CC/C=C/C=C\CCCCCCCCOC(C)=O [(Z, E)-9,11-tetradecadienyl acetate, (Z,E)-9,11-Tetradecadienyl acetate] | 13.9 ± 1.44 µM
O=CCc1ccccc1 [Phenylacetaldehyde] | 35.8 ± 9.76 µM

target: T1, SlitOBP11; experiment: competitive displacement of 1-NPN fluorescence; type: binding; details: not given; remark: another data set of the same source

Molecule | IC50
CCCCCCCC=O [Octyl aldehyde] | > 50 µM
CCCCC(C)=O [2-hexanone] | > 50 µM
CC(=O)OCc1ccccc1 [Benzyl acetate] | > 50 µM
CCCC(=O)CC [3-hexanone] | > 50 µM
CC1=CCCC(C)(C)C1/C=C/C(C)O (stereo not drawn) [Alpha- ionol] | > 50 µM
CCc1ccccc1 [Ethylbenzene] | > 50 µM
C=CC(=C)CCC=C(C)C [Myrcene] | > 50 µM
CCCCCCC(=O)O [Heptanoic acid] | > 50 µM
C=CC(C)(O)CC/C=C(\C)CCC=C(C)C (stereo not drawn) [Trans-nerolidol] | > 50 µM
CC(=O)OC/C=C(\C)CCC=C(C)C [Geranyl acetate] | > 50 µM
CCCC/C=C\CCCCCCCCOC(C)=O [(Z)-9-tetradecenyl acetate, (Z)-9-Tetradecenyl acetate] | 11.2 ± 0.55 µM
CCCCCCCCCCCCCC [Tetradecane] | > 50 µM
CC(=O)CC/C=C(\C)CCC=C(C)C [Geranylacetone] | > 50 µM
CC(C)CCC(=O)O [4-methylpentanoic acid] | > 50 µM
OCc1ccccc1 [Benzyl alcohol] | > 50 µM
CCCC(=O)O [Butyric acid] | > 50 µM
OCCc1ccccc1 [Phenethyl alcohol] | > 50 µM
C/C=C/C/C=C\CCCCCCCCOC(C)=O [(Z, E)-9,12-tetradecadienyl acetate, (Z,E)-9,12-Tetradecadienyl acetate] | 16.2 ± 0.32 µM
c1ccc2[nH]ccc2c1 [Indole] | > 50 µM
CC(=O)/C=C/C1=C(C)CCCC1(C)C [Beta-ionone] | > 50 µM
C=C(C)[C@H]1CC=C(C)CC1 [(R)-(+)-limonene] | > 50 µM

Molecule | IC50
CC12CCC(CC1)C(C)(C)O2 [Eucalyptol] | > 50 µM
CC(=O)OCCc1ccccc1 [Phenethyl acetate] | 48.6 ± 0.52 µM
CC1=CCC(C(C)C)C=C1 (stereo not drawn) [Alpha-phellandrene] | > 50 µM
CCC(=O)O [Propanoic acid] | > 50 µM
CC/C=C\CCOC(C)=O [Cis-3-hexenyl acetate] | > 50 µM
CC/C=C/C=C\CCCCCCCCOC(C)=O [(Z, E)-9,11-tetradecadienyl acetate, (Z,E)-9,11-Tetradecadienyl acetate] | 15.6 ± 1.41 µM
CC(C)C(=O)O [Isobutyric acid] | > 50 µM
O=Cc1ccccc1 [Benzaldehyde] | > 50 µM
CCC(C)CC(=O)O (stereo not drawn) [3-methylpentanoic acid] | > 50 µM
CCCCCCCCCC=O [Decanal] | > 50 µM
CCCCCCCCCCCC [Dodecane] | > 50 µM
CC(=O)O [Acetic acid] | > 50 µM
CCCCCCCCCCCCC [Tridecane] | > 50 µM
CCCCC(=O)O [Pentanoic acid] | > 50 µM
COC(=O)c1ccccc1O [Methyl salicylate] | > 50 µM
C=C(C)[C@H]1CC=C(C)C(=O)C1 [(+)-Carvone] | > 50 µM
CC(C)CC(=O)O [3-methylbutyric acid] | > 50 µM
CCCCCCCCCCCCCCCCCC [N-octadecane] | > 50 µM
CCCCCC(=O)O [Hexanoic acid] | > 50 µM
C=C1CC/C=C(\C)CC[C@@H]2[C@@H]1CC2(C)C [Beta-caryophyllene] | > 50 µM

same assay, conditions: 2 μM protein, 2 μM 1-NPN, 30 mM Tris-HCl pH 7.4, 4°C; read-out: IC50

Molecule | IC50
Farnesene | > 50 µM

same assay, conditions: read-out: IC50

Molecule | IC50
CC/C=C/CCCCCCCCCCOC(C)=O [(E)-11-tetradecenly acetate, (E)-11-Tetradecenyl acetate] | 15.2 ± 0.54 µM
COC(=O)c1ccccc1N [Methyl anthranilate] | > 50 µM
C=CC(C)(O)CCC=C(C)C (racemic) [(±)-Linalool] | > 50 µM

same assay, conditions: read-out: IC50 (μmol L^-1); 2 μM protein, 2 μM 1-NPN, 30 mM Tris-HCl pH 7.4, 4°C

Molecule | IC50
C/C=C/C(=O)O [Crotonic acid] | > 50 µM
